Laboratory results as given in patent US4694069A, “Kibdelosporangium aridum SK&F-AAD-609” (SmithKline Beckman Corporation, priority 1985, dated 1987).
≈ marks a conversion by molar mass, not a printed value. Read-outs that look alike come from different tables or passages of the source.

Key:
[1] = tested on: mixed intestinal microflora (cecum fluid); assay: Swine in vitro model; details: one level, up to 166.67 ppm; 4-5 h
Description: A swine in vitro model was used to characterize AAD-609 antibiotics as potential feed additives in swine and poultry. Mixed intestinal microflora were obtained from ileally-cannulated pigs. Virginiamycin, carbadox, AAD-216 and its components, and AAD-609 Complex (containing less than 5% AAD-216 antibiotics) were tested at one level. […] Glucose (GLU) was spared from microbial degradation. Volatile fatty acids (TOTAL) were the major end-product of microbial metabolism while lactic acid production were reduced. […] Since AAD-609 and AAD-216 give similar in vitro results, it is expected that AAD-609 has similar growth-promoting activity in monogastric animals. Also, the in vitro activity of AAD-609 is similar to the activity previously observed with bacitracin in this model.
The swine in vitro model was carried out by incubating 1.5 ml of cecum fluid, from a swine fed normal rations, mixed with 1.5 ml of a nutrient broth (3 mg casein hydrolysate, 30 mg maltose, 1.25 mg urea, 0.5 mg lysine, and 30 mg cellobiose) and with up to 166.67 parts per million of a selected growth promotant at 39° C., with oscillation, for about 4-5 hours. Results, percentage of control, are reported in the following table in which all abbreviations are as above except that LLA means L-lactate and ETOH means ethanol.

[2] = tested on: Staphylococcus aureus HH127; assay: In vitro MIC, standard microtiter assay; format: cell-based
Excerpt: (§1) In vitro minimum inhibitory concentrations (MIC) of the AAD-609 complex and of Factors A, B, CC2 and D, using standard microtiter assay procedures, against a number of microorganisms are reported in Table A, which follows.

Clostridium difficile = assay: In vitro MIC, standard microtiter assay; format: cell-based; details: Clostridioides difficile; Table A; read-out: MIC
Excerpt: as §1

Escherichia coli 12140 = assay: In vitro MIC, standard microtiter assay; format: cell-based; details: Escherichia coli, 12140; Table A; read-out: MIC
Excerpt: as §1

S. epidermidis 2479 = assay: In vitro MIC, standard microtiter assay; format: cell-based
Excerpt: as §1

S. epidermidis 2683 = assay: In vitro MIC, standard microtiter assay; format: cell-based; details: Staphylococcus epidermidis, 2683; Table A; read-out: MIC
Excerpt: as §1

[3] = tested on: S. epidermidis 651 (methicillin resistant strain); assay: In vitro MIC, standard microtiter assay; format: cell-based; details: methicillin resistant strain
Excerpt: as §1

[4] = tested on: Salmonella gallinarum BC-595; assay: In vitro MIC, standard microtiter assay; format: cell-based; details: Salmonella enterica, GALLINARUM; Table A; read-out: MIC
Excerpt: as §1

[5] = tested on: Streptococcus faecalis 657; assay: In vitro MIC, standard microtiter assay; format: cell-based; details: Enterococcus faecalis, 657; Table A; read-out: MIC
Excerpt: as §1

S. epidermidis 2265 = assay: In vitro MIC, standard microtiter assay; format: cell-based; details: Staphylococcus epidermidis, 2265; Table A; read-out: MIC
Excerpt: as §1

[6] = pKa by potentiometric titration; details: 30:70 acetonitrile:water, apparent values, AAD-216A averaged previous results
S. faecalis 34358 = assay: In vitro MIC, standard microtiter assay; format: cell-based, Streptococcus faecalis
Excerpt: as §1

[7] = tested on: S. aureus 2620 (methicillin resistant strain); assay: MIC; format: cell-based; details: Staphylococcus aureus; Table B; methicillin resistant strain; read-out: MIC
Excerpt: as §1

Pharmacokinetics in mice = details: mice
S. aureus 209P = assay: In vitro MIC, standard microtiter assay; format: cell-based, Staphylococcus aureus; details: Staphylococcus aureus, 209P; Table A; read-out: MIC
Excerpt: as §1

S. aureus 674 = assay: In vitro MIC, standard microtiter assay; format: cell-based, Staphylococcus aureus; details: Staphylococcus aureus, 674; Table A; read-out: MIC
Excerpt: as §1

S. aureus 675 = assay: In vitro MIC, standard microtiter assay; format: cell-based, Staphylococcus aureus; details: Staphylococcus aureus, 675; Table A; read-out: MIC
Excerpt: as §1

[8] = tested on: S. aureus 910 (methicillin resistant strain); assay: In vitro MIC, standard microtiter assay; format: cell-based, Staphylococcus aureus; details: Staphylococcus aureus; Table A; methicillin resistant strain; read-out: MIC
Excerpt: as §1

[9] = tested on: rumen fermentation (strained rumen fluid); assay: Rumen in vitro model; design: species or system steer; details: for AAN (alpha amino nitrogen) / AMO (ammonia nitrogen) / LYS (lysine): 6 h; for % PR (percent propionate) / ACE (acetate) / BUT (butyrate) / ETOH (ethanol) / IBU (isobutyrate) / IVA (isovalerate) / PRO (propionate) / TOTAL (total volatile fatty acids) / VAL: 24 h
Description: The AAD-609 antibiotics were characterized in a rumen in vitro model to assess their potential as feed additives for ruminants. […] Specifically, strained rumen fluid (10 ml) obtained from a fistulated steer receiving a roughage ration, was mixed with 10 ml of nutrient broth (20 mg casein hydrolysate, 100 mg maltose, 15 mg urea, 400 mg solka floc (cellulose), 100 mg cellobiose and 100 mg starch) and with a selected growth promotant and incubated at 39° C., with oscillation, for 24 hours. […] Measurement of AMO, LYS and AAN was done with a sample taken from the incubation flask after 6 hours.

CCCCCCCCCC(=O)NC1C(Oc2c3cc4cc2Oc2c(Cl)cc(cc2Cl)C(O)C2NC(=O)C(NC(=O)C4NC(=O)C4NC(=O)C(NC(=O)C(NC)c5ccc(O)c(c5)Oc5cc(O)c(Cl)c4c5)C(O)c4ccc(c(Cl)c4)O3)c3ccc(O)c(c3)-c3c(OC4OC(CO)C(O)C(O)C4O)cc(O)cc3C(C(=O)O)NC2=O)OC(C(=O)O)C(O)C1O (centres unmarked) [AAD-216 A]
% PR (percent propionate) [1]: 117 % of control | ACE (acetate) [1]: 200 % of control | BUT (butyrate) [1]: 147 % of control | ETOH (ethanol) [1]: 167 % of control | GLU (glucose) [1]: 180 % of control | IBU (isobutyrate) [1]: 0 % of control | IVA (isovalerate) [1]: 0 % of control | LLA (L-lactate) [1]: 2 % of control | LYS (lysine) [1]: 35 % of control | PRO (propionate) [1]: 276 % of control | TOTAL (total volatile fatty acids) [1]: 236 % of control | VAL [1]: 0 % of control | MIC ([2]; Staphylococcus aureus, HH127, Table A, read-out: MIC): 3.1 µg/mL (≈ 1.73 µM) | MIC ([2]; Table B): 3.1 µg/mL (≈ 1.73 µM) | MIC (Clostridium difficile): 0.25 µg/mL (≈ 0.14 µM) | MIC (Escherichia coli 12140): > 100 µg/mL | MIC (S. epidermidis 2479; Staphylococcus epidermidis, 2479, Table A, read-out: MIC): 25 µg/mL (≈ 14 µM) | MIC (S. epidermidis 2479; Table B): 25 µg/mL (≈ 14 µM) | MIC (S. epidermidis 2683): 50 µg/mL (≈ 27.9 µM) | MIC ([3]; Staphylococcus epidermidis, Table A, read-out: MIC): 100 µg/mL (≈ 55.9 µM) | MIC ([3]; Table B): 100 µg/mL (≈ 55.9 µM) | MIC [4]: > 100 µg/mL | MIC [5]: 0.8 µg/mL (≈ 0.447 µM) | MIC (S. epidermidis 2265): 50 µg/mL (≈ 27.9 µM) | pKa (A) carboxyl on aglycone [6]: 3.0 | pKa (B) carboxyl on side chain [6]: 4.9 | pKa (C) amino group on aglycone [6]: 7.4 | pKa (D) phenolic OH ([6]; first phenolic OH): 8.4 | pKa (D) phenolic OH ([6]; second phenolic OH): 10.0 | pKa (D) phenolic OH ([6]; third phenolic OH): 10.3 | MIC (S. faecalis 34358; Enterococcus faecalis, 34358, Table A, read-out: MIC): 0.4 µg/mL (≈ 0.224 µM) | MIC (S. faecalis 34358; Table B): 0.4 µg/mL (≈ 0.224 µM) | MIC [7]: 4 µg/mL (≈ 2.24 µM) | Elimination half-life (Pharmacokinetics in mice): 3.77 h | Maximum serum concentration (Pharmacokinetics in mice): 121 µg/mL | MIC (S. aureus 209P): 0.8 µg/mL (≈ 0.447 µM) | MIC (S. aureus 674): 3.1 µg/mL (≈ 1.73 µM) | MIC (S. aureus 675): 12.5 µg/mL (≈ 6.99 µM) | MIC [8]: 3.1 µg/mL (≈ 1.73 µM) | AAN (alpha amino nitrogen) ([9]; 0.50 ppm): 76 % of control | AMO (ammonia nitrogen) ([9]; 0.50 ppm): 102 % of control | LYS (lysine) ([9]; 0.50 ppm): 108 % of control | % PR (percent propionate) ([9]; 0.50 ppm): 106 % of control | ACE (acetate) ([9]; 0.50 ppm): 96 % of control | BUT (butyrate) ([9]; 0.50 ppm): 100 % of control | ETOH (ethanol) ([9]; 0.50 ppm): 0 % of control | IBU (isobutyrate) ([9]; 0.50 ppm): 125 % of control | IVA (isovalerate) ([9]; 0.50 ppm): 124 % of control | PRO (propionate) ([9]; 0.50 ppm): 107 % of control | TOTAL (total volatile fatty acids) ([9]; 0.50 ppm): 101 % of control | AAN (alpha amino nitrogen) ([9]; 5.00 ppm): 153 % of control | AMO (ammonia nitrogen) ([9]; 5.00 ppm): 101 % of control | LYS (lysine) ([9]; 5.00 ppm): 144 % of control | % PR (percent propionate) ([9]; 5.00 ppm): 148 % of control | ACE (acetate) ([9]; 5.00 ppm): 105 % of control | BUT (butyrate) ([9]; 5.00 ppm): 81 % of control | ETOH (ethanol) ([9]; 5.00 ppm): 0 % of control | IBU (isobutyrate) ([9]; 5.00 ppm): 75 % of control | IVA (isovalerate) ([9]; 5.00 ppm): 48 % of control | PRO (propionate) ([9]; 5.00 ppm): 153 % of control | TOTAL (total volatile fatty acids) ([9]; 5.00 ppm): 103 % of control | VAL ([9]; 5.00 ppm): 56 % of control | AAN (alpha amino nitrogen) ([9]; 50.00 ppm): 195 % of control | AMO (ammonia nitrogen) ([9]; 50.00 ppm): 109 % of control | LYS (lysine) ([9]; 50.00 ppm): 168 % of control | % PR (percent propionate) ([9]; 50.00 ppm): 140 % of control | ACE (acetate) ([9]; 50.00 ppm): 93 % of control | BUT (butyrate) ([9]; 50.00 ppm): 87 % of control | ETOH (ethanol) ([9]; 50.00 ppm): 0 % of control | IBU (isobutyrate) ([9]; 50.00 ppm): 112 % of control | IVA (isovalerate) ([9]; 50.00 ppm): 98 % of control | PRO (propionate) ([9]; 50.00 ppm): 138 % of control | TOTAL (total volatile fatty acids) ([9]; 50.00 ppm): 98 % of control | VAL ([9]; 50.00 ppm): 26 % of control
